In ChEMBL document CHEMBL5055650, “4-Acyl Pyrrole Capped HDAC Inhibitors: A New Scaffold for Hybrid Inhibitors of BET Proteins and Histone Deacetylases as Antileukemia Drug Leads” (J Med Chem, 2021):
Calls of active or inactive are those of the source. No cut-off for these calls is given here.

Tests used:
HPBALL [1] = experiment: Induction of apoptosis in human HPBALL cells assessed as increase in caspase3/7 activity at 5 uM after 48 hrs by luminescent based Glo assay; format: functional, cell-based
REH = experiment: Anticancer activity against human REH cells assessed as cell growth inhibition by CellTiter-Glo luminescent assay; format: functional, cell-based
HAL-01 = experiment: Anticancer activity against human HAL-01 cells assessed as cell growth inhibition by CellTiter-Glo luminescent assay; format: functional, cell-based
[2] = molecular target: T1, Protein deacetylase HDAC6 (Homo sapiens, UniProt Q9UBN7); experiment: Inhibition of human recombinant HDAC6 assessed as fluorescence using fluorogenic substrate ZMAL incubated for 90 min by microplate reader
T1 sequence (Q9UBN7 whole entry): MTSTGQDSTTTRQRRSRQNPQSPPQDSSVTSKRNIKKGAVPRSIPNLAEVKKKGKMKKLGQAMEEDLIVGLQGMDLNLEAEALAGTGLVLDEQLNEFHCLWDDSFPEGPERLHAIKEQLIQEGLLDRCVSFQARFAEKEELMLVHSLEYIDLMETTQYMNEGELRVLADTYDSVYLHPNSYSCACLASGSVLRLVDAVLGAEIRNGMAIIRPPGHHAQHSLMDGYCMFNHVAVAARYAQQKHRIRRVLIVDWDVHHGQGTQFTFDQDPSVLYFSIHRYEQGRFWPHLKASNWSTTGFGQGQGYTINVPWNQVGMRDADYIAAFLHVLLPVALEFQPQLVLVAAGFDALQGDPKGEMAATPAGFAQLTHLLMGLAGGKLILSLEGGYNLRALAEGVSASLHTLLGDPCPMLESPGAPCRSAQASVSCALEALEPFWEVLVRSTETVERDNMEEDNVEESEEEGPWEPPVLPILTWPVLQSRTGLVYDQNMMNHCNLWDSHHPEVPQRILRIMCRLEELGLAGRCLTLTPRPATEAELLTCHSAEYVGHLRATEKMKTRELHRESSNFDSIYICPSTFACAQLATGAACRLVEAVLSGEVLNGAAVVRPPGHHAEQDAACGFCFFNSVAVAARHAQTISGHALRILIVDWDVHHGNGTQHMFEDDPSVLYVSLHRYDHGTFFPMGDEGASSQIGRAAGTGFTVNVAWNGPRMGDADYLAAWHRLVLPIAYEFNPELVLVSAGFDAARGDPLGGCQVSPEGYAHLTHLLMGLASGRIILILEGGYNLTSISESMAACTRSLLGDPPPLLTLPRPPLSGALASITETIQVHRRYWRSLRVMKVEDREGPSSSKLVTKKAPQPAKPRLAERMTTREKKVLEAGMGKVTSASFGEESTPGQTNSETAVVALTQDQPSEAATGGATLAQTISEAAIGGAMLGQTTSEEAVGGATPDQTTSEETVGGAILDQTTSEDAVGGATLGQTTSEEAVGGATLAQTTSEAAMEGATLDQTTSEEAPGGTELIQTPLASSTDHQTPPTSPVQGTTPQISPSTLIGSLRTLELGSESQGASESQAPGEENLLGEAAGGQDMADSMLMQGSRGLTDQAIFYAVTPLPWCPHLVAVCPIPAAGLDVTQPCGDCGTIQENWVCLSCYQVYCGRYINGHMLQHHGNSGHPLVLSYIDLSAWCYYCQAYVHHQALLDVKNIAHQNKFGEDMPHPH

HPBALL [3] = experiment: Induction of apoptosis in human HPBALL cells assessed as increase in apoptotic cells at 5 uM after 24 hrs using annexin V/PI followed by flow cytometry; format: functional, cell-based
Histone deacetylase 3 = Histone deacetylase 3 (Homo sapiens, UniProt O15379); experiment: Inhibition of human HDAC3 assessed as target activity using fluorogenic substrate ZMAL for 90 min by microplate reader at 355nm
Chain of Histone deacetylase 3 (O15379 whole entry): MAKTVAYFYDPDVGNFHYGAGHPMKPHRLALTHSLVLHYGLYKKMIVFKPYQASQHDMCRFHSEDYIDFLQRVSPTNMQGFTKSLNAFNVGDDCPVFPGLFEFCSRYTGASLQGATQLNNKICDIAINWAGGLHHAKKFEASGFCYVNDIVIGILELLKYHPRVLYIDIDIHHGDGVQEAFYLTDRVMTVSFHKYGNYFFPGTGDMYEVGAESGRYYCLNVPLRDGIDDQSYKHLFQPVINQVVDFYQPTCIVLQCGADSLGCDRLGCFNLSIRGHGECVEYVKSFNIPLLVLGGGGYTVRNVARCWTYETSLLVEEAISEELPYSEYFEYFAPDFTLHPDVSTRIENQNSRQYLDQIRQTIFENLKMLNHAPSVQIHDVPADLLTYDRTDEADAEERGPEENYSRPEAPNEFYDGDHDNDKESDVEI

HPBALL [4] = experiment: Induction of apoptosis in human HPBALL cells assessed as increase in apoptotic cells at 5 uM after 48 hrs by using annexin V/PI followed by flow cytometry; format: functional, cell-based
TALL-1 = experiment: Anticancer activity against human TALL-1 cells assessed as cell growth inhibition by CellTiter-Glo luminescent assay; format: functional, cell-based
HPBALL [5] = experiment: Induction of apoptosis in human HPBALL cells assessed as increase in apoptotic cells at 5 uM after 72 hrs using annexin V/PI followed by flow cytometry; format: functional, cell-based
HPBALL [6] = experiment: Induction of apoptosis in human HPBALL cells assessed as decrease in MYC protein levels at 5 uM after 24 hrs by Western blot analysis; format: functional, cell-based
K562 = experiment: Induction of apoptosis in human K562 cells assessed as apoptosis at 2.9 uM after 24 to 72 hrs using annexin V/PI followed by flow cytometry; format: functional, cell-based; conditions: time 24-72 hrs
Danio rerio [7] = experiment: Toxicity in zebrafish embryos assessed as yolk sac edema at 5 uM after 72 hrs by visual analysis (reference value: 0%); format: organism-based, Embryo; conditions: in vivo
Danio rerio [8] = species on record: Danio rerio; experiment: Toxicity in zebrafish embryos assessed as cardiac teratogenesis/necrosis at 50 uM after 72 hrs by visual analysis (reference value: 0%); format: organism-based, Embryo; conditions: in vivo
Danio rerio [9] = experiment: Toxicity in zebrafish embryos assessed as yolk sac edema at 0.005 uM after 72 hrs by visual analysis (reference value: 0%); format: organism-based, Embryo; conditions: in vivo
Danio rerio [10] = species on record: Danio rerio; experiment: Toxicity in zebrafish embryos assessed as tail necrosis at 0.05 uM after 72 hrs by visual analysis (reference value: 0%); format: organism-based; conditions: in vivo
Danio rerio [11] = species on record: Danio rerio; experiment: Toxicity in zebrafish embryos assessed as malformation of tail at 5 uM after 72 hrs by visual analysis (reference value: 5%); format: organism-based; conditions: in vivo
[12] = Nonlethal toxicity in zebrafish embryos assessed as embryo survival at 5 uM after 72 hrs by visual analysis (reference value: 100%); format: organism-based, Danio rerio; conditions: in vivo
Danio rerio [13] = species on record: Danio rerio; experiment: Toxicity in zebrafish embryos assessed as malformation of head at 0.5 uM after 72 hrs by visual analysis (reference value: 0%); format: organism-based; conditions: in vivo
Danio rerio [14] = species on record: Danio rerio; experiment: Toxicity in zebrafish embryos assessed as teratogenesis at 5 uM after 72 hrs by visual analysis (reference value: 0%); format: organism-based, Embryo; conditions: in vivo
Danio rerio [15] = species on record: Danio rerio; experiment: Toxicity in zebrafish embryos assessed as teratogenesis at 0.5 uM after 72 hrs by visual analysis (reference value: 0%); format: organism-based, Embryo; conditions: in vivo
Danio rerio [16] = species on record: Danio rerio; experiment: Toxicity in zebrafish embryos assessed as malformation of head at 0.005 uM after 72 hrs by visual analysis (reference value: 0%); format: organism-based; conditions: in vivo
Danio rerio [17] = species on record: Danio rerio; experiment: Toxicity in zebrafish embryos assessed as cardiac teratogenesis/necrosis at 5 uM after 72 hrs by visual analysis (reference value: 0%); format: organism-based, Embryo; conditions: in vivo
Danio rerio [18] = species on record: Danio rerio; experiment: Toxicity in zebrafish embryos assessed as tail necrosis at 0.005 uM after 72 hrs by visual analysis (reference value: 0%); format: organism-based; conditions: in vivo
Danio rerio [19] = experiment: Toxicity in zebrafish embryos assessed as pericardial edema at 5 uM after 72 hrs by visual analysis (reference value: 10%); format: organism-based, Embryo; conditions: in vivo
Danio rerio [20] = species on record: Danio rerio; experiment: Toxicity in zebrafish embryos assessed as teratogenesis at 50 uM after 72 hrs by visual analysis (reference value: 0%); format: organism-based, Embryo; conditions: in vivo
Danio rerio [21] = species on record: Danio rerio; experiment: Toxicity in zebrafish embryos assessed as malformation of tail at 0.5 uM after 72 hrs by visual analysis (reference value: 5%); format: organism-based; conditions: in vivo
Danio rerio [22] = species on record: Danio rerio; experiment: Toxicity in zebrafish embryos assessed as small eyes at 0.005 uM after 72 hrs by visual analysis (reference value: 10%); format: organism-based, Embryo; conditions: in vivo
Danio rerio [23] = species on record: Danio rerio; experiment: Toxicity in zebrafish embryos assessed as malformation of tail at 50 uM after 72 hrs by visual analysis (reference value: 5%); format: organism-based; conditions: in vivo

SMILES	IC50 (REH)	IC50 (HAL-01)	IC50 [2]	Activity (HPBALL [3])	IC50 (Histone deacetylase 3)	Activity (HPBALL [4])	IC50 (TALL-1)	Activity (HPBALL [5])	Activity (HPBALL [6])	Activity (HPBALL [1])	further results
CCc1c(C(=O)Nc2cc(/C=C/C(=O)NO)ccc2OC)[nH]c(C)c1C(C)=O	> 25 µM	> 25 µM	0.042 µM	Active	0.119 µM	Active	2.88 µM	inactive	Active	–	inhibition (HPBALL [1]): Active
COc1ccc(S(=O)(=O)n2ccc(/C=C/C(=O)NO)c2)cc1NC(=O)c1[nH]c(C)c2c1CCCCC2=O	9.76 µM	6.41 µM	0.046 µM	Active	0.064 µM	Active	2.33 µM	Active	Active	Active	Activity (K562): Active
Cc1[nH]c(C(=O)Nc2cc(S(=O)(=O)N3CCOCC3)ccc2OCCCCCCCC(=O)NO)c2c1C(=O)CCCC2	7.79 µM	5.93 µM	0.067 µM	–	0.296 µM	–	2.93 µM	–	Active	Active	Activity (Danio rerio [7]): 0%; Activity (Danio rerio [8]): 0%; Activity (Danio rerio [9]): 5%; Activity (Danio rerio [10]): 0%; Activity (Danio rerio [11]): 10%; survival at 72 h, 5 µM [12]: 95%; Activity (Danio rerio [13]): 15%; Activity (Danio rerio [14]): 15%; Activity (Danio rerio [15]): 15%; Activity (Danio rerio [16]): 15%; Activity (Danio rerio [17]): 40%; Activity (Danio rerio [18]): 15%; Activity (Danio rerio [19]): 10%; Activity (Danio rerio [20]): 0%; Activity (Danio rerio [21]): 15%; Activity (Danio rerio [22]): 10%; Activity (Danio rerio [23]): 15%
